From patent US20160311812A1, “ADENOSINE A1 AGONISTS AS MEDICAMENTS FOR KIDNEY DISORDERS” (BAYER PHARMA AKTIENGESELLSCHAFT, priority 2013, published 2016)

How the values were obtained:
[1] = tested on: 5/6 nephrectomy rat model; assay: Functional and structural renal dysfunction in 5/6 nephrectomized rats; format: in vivo; conditions: 4 weeks; for End organ injury marker concentration in the urine: hFABP / End organ injury marker concentration in the urine: hFABP per creatinine: ELISA; for Kidney injury marker-1 [gene expression] / Lipocalin-2 [gene expression] / Osteopontin [gene expression]: renal cortex
Text: (§1) B-3. Effects of Partial A1 Agonists on Renal and Cardiac Function in 5/6 Nephrectomized Rats (Example 1 for Chronic Kidney Disorder)
(§2) 5/6 nephrectomy in the rat, in which one kidney and the renal cortex of the second kidney are surgically removed (=5/6 of functional kidney tissue) is an established animal model for interstitial renal fibrosis and chronic renal insufficiency [C. Fleck et al., “Suitability of 5/6 nephrectomy (5/6NX) for the induction of interstitial renal fibrosis in rats Influence of sex, strain, and surgical procedure”, Exp. Tox. Pathology 2006, 57, 195-205]. The model is characterized by progressive proteinuria, disturbed tubular electrolyte transport, a reduced glomerular filtration rate, an increase in urinary output, interstitial fibrosis with reactively occurring lymphocyte infiltrates, glomerulosclerosis and tubular atrophy. The level of proteinuria is a specific index of the renal function prognosis: the higher the proteinuria, the greater is the functional and structural kidney injury and therefore progression of chronic to terminal renal insufficiency (uraemia). During monitoring of therapy, e.g. with the ACE inhibitor enalapril, the course of proteinuria provides information on the functional and structural response to the therapy and thus on the renal function prognosis. As a result of the renal insufficiency and accumulation of umemic toxins, in the animals there is secondary development of a umemic cardiomyopathy, depending on the severity associated with hypertension, increased heart rate, reduced parasympathetic tone, myocardial, left-ventricular hypertrophy and fibrosis, diastolic dysfunction and an increased prevalence of arrhythmias [Svilerova et al. 2010 Physiol Res 59: S81-S88).
(§3) Procedure: male Wistar:WU rats (210-250 g) from Charles River had the left kidney and the renal cortex of the right kidney removed (=SNX) in one session; sham-operated rats served as control group (=SOP). The following groups, each with 12 rats per group, were investigated:
(§4) Group 2 SNX+placebo (60 g glycerol+100 g water+969 g PEG-400)
(§5) Group 3 SNX+10 mg/kg body weight/day enalapril (reference therapy, in the drinking water)
(§6) Group 4 SNX+0.1 mg/kg body weight/day partial A1 agonist EXAMPLE 1, p.o. in placebo
(§7) Group 5 SNX+1.0 mg/kg body weight/day partial A1 agonist EXAMPLE 1, p.o. in placebo
(§8) Group 6 SNX+0.3 mg/kg body weight/day partial A1 agonist EXAMPLE 4, p.o. in placebo
(§9) Group 7 SNX+3.0 mg/kg body weight/day partial A1 agonist EXAMPLE 4, p.o. in placebo
(§10) Three weeks after 5/6 nephrectomy, the rats developed manifest proteinuria, from this time point the rats were treated for a further four weeks corresponding to the groups stated above. At the end of the protocol, the following samples were obtained/measurements were carried out: eight-hour urine collection with determination of the concentration of hFABP in the urine by ELISA (Rat/Mouse h-FABP ELISA, Hycultbiotech), as marker for end organ damage, invasive measurement of the isoprenaline-induced increase (cumulatively 12.5 ng-250 ng/kg isoprenaline, i.v.) in systolic and diastolic left ventricular function, and TaqMan analyses of renal injury markers in the renal cortex.

[2] = tested on: unilaterally nephrectomized SHR; assay: Functional and structural renal dysfunction in unilaterally nephrectomized spontaneously hypertensive rats; format: in vivo, rat; conditions: Group 5: SNX + 3.0 mg/kg body weight/day p.o., 4 weeks
Text: (§11) B-4. Effects of Partial A1 Agonists on Renal and Cardiac Function in Unilaterally Nephrectomized and Spontaneously Hypertensive Rats (Example 2 for Chronic Kidney Disorders)
(§12) Unilaterally nephrectomized, spontaneously hypertensive rats (SHR) are an established animal model for investigating the development and progression of hypertensive damage of the glomeruli in the remaining kidney [H. Kinuno et al., “Effects of uninephrectomy on renal structural properties in spontaneously hypertensive rats”, Clin and Exp Pharmacol and Physiol 2005, 32, 173-178]. […] Furthermore, renal excretion of substances usually eliminated in the urine, such as creatinine and urea, is reduced and the electrolyte metabolism is disturbed, the latter being associated with volume retention.
(§13) Procedure: male SHR rats (180-220 g) from Taconic had the left kidney removed in one session (=UNX). Normotensive Wistar Kyoto rats (WKY) from Taconic served as control. The following groups, each with 12 rats per group, were investigated:
(§14) Group 2 UNX+placebo (60 g glycerol+100 g water+969 g PEG-400)
(§15) Group 3 UNX+10 mg/kg body weight/day enalapril (reference therapy, in the drinking water)
(§16) Group 4 SNX+1.0 mg/kg body weight/day partial A1 EXAMPLE 1, p.o. in placebo
(§17) Group 5 SNX+3.0 mg/kg body weight/day partial A1 EXAMPLE 4, p.o. in placebo
(§18) Three weeks after unilateral nephrectomy, the SHRs developed manifest hypertensive damage of the glomeruli in the remaining kidney, from this time point on the rats were treated for a further four weeks corresponding to the groups given above. At the end of the protocol, the following samples were obtained/measurements were carried out: eight-hour urine collection, invasive measurement of systolic and diastolic left ventricular function, and TaqMan analyses of renal injury markers in the renal cortex.

[3] = tested on: 5/6 nephrectomy rat model; assay: Left-ventricular diastolic dysfunction under isoprenaline infusion in 5/6 nephrectomized rats; format: in vivo; conditions: 4 weeks
Text: as §1, §2, §3, §4, §5, §6, §7, §8, §9, §10

[4] = tested on: unilaterally nephrectomized SHR; assay: Functional and structural myocardial dysfunction in unilaterally nephrectomized spontaneously hypertensive rats; format: in vivo, rat; conditions: Group 5: SNX + 3.0 mg/kg body weight/day p.o., 4 weeks
Text: as §11, §12, §13, §14, §15, §16, §17, §18

[5] = Group 6: SNX + 0.3 mg/kg body weight/day p.o.
[6] = Group 7: SNX + 3.0 mg/kg body weight/day p.o.

Compound: N#Cc1c(SCc2csc(-c3ccc(Cl)cc3)n2)nc(N2CCCC2)c(C#N)c1-c1ccc(OCCO)cc1 [EXAMPLE 4, 2-({[2-(4-Chlorophenyl)-1,3-thiazol-4-yl]methyl}sulphanyl)-4-[4-(2-hydroxyethoxy)phenyl]-6-(pyrrolidin-1-yl)pyridine-3,5-dicarbonitrile]
- P-creatinine [1, 5]: 64 ± 1 µmol/L
- P-urea [1, 5]: 11 ± 0.3 mmol/L
- U-creatinine [1, 5]: 3.1 ± 0.2 μmol/ml urine/kg BW/h
- U-protein [1, 5]: 1.70 ± 0.29 μmol/ml urine/kg BW/h
- U-sodium [1, 5]: 19 ± 3 μmol/ml urine/kg BW/h
- U-urea [1, 5]: 330 ± 25 μmol/ml urine/kg BW/h
- Urine volume [1, 5]: 1.8 ± 0.1 ml/kg BW/h
- End organ injury marker concentration in the urine: hFABP [1, 5]: 3125 ± 497 pg hFABP/ml urine/h
- End organ injury marker concentration in the urine: hFABP per creatinine [1, 5]: 386 ± 57 pg hFABP/μmol creatinine
- Kidney injury marker-1 [gene expression] [1, 5]: 68 ± 14 rel. expression
- Lipocalin-2 [gene expression] [1, 5]: 340 ± 49 rel. expression
- Osteopontin [gene expression] [1, 5]: 6882 ± 1240 rel. expression
- P-creatinine [1, 6]: 63 ± 1 µmol/L
- P-urea [1, 6]: 11 ± 0.3 mmol/L
- U-creatinine [1, 6]: 2.7 ± 0.3 μmol/ml urine/kg BW/h
- U-protein [1, 6]: 0.97 ± 0.12 μmol/ml urine/kg BW/h
- U-sodium [1, 6]: 43 ± 5 μmol/ml urine/kg BW/h
- U-urea [1, 6]: 281 ± 30 μmol/ml urine/kg BW/h
- Urine volume [1, 6]: 1.8 ± 0.2 ml/kg BW/h
- End organ injury marker concentration in the urine: hFABP [1, 6]: 1706 ± 249 pg hFABP/ml urine/h
- End organ injury marker concentration in the urine: hFABP per creatinine [1, 6]: 218 ± 39 pg hFABP/μmol creatinine
- Kidney injury marker-1 [gene expression] [1, 6]: 56 ± 18 rel. expression
- Lipocalin-2 [gene expression] [1, 6]: 283 ± 45 rel. expression
- Osteopontin [gene expression] [1, 6]: 6340 ± 1656 rel. expression
- P-creatinine [2]: 58 ± 0.6 µmol/L
- P-urea [2]: 8.7 ± 0.2 mmol/L
- U-creatinine [2]: 3.4 ± 0.9 μmol/ml urine/kg BW/h
- U-protein [2]: 0.96 ± 0.26 μmol/ml urine/kg BW/h
- U-sodium [2]: 46 ± 11 μmol/ml urine/kg BW/h
- U-urea [2]: 337 ± 89 μmol/ml urine/kg BW/h
- Urine volume [2]: 1.8 ± 0.2 ml/kg BW/h
- CYR61 [gene expression] ([2]; renal cortex): 274 ± 21 rel. expression
- Lipocalin-2 [gene expression] ([2]; renal cortex): 119 ± 9 rel. expression
- left-ventricular pressure decrease as a function of time ([3]; isoprenaline 0 ng/kg body weight, Group 6: SNX + 0.3 mg/kg body weight/day p.o.): 6518 ± 221 mmHg/s
- left-ventricular pressure decrease as a function of time ([3]; isoprenaline 0 ng/kg body weight, Group 7: SNX + 3.0 mg/kg body weight/day p.o.): 6884 ± 383 mmHg/s
- left-ventricular pressure decrease as a function of time ([3]; isoprenaline 12.5 ng/kg body weight, Group 6: SNX + 0.3 mg/kg body weight/day p.o.): 7733 ± 233 mmHg/s
- left-ventricular pressure decrease as a function of time ([3]; isoprenaline 12.5 ng/kg body weight, Group 7: SNX + 3.0 mg/kg body weight/day p.o.): 8369 ± 395 mmHg/s
- left-ventricular pressure decrease as a function of time ([3]; isoprenaline 25 ng/kg body weight, Group 6: SNX + 0.3 mg/kg body weight/day p.o.): 8001 ± 224 mmHg/s
- left-ventricular pressure decrease as a function of time ([3]; isoprenaline 25 ng/kg body weight, Group 7: SNX + 3.0 mg/kg body weight/day p.o.): 8557 ± 396 mmHg/s
- left-ventricular pressure decrease as a function of time ([3]; isoprenaline 50 ng/kg body weight, Group 6: SNX + 0.3 mg/kg body weight/day p.o.): 8763 ± 195 mmHg/s
- left-ventricular pressure decrease as a function of time ([3]; isoprenaline 50 ng/kg body weight, Group 7: SNX + 3.0 mg/kg body weight/day p.o.): 9100 ± 341 mmHg/s
- left-ventricular pressure decrease as a function of time ([3]; isoprenaline 100 ng/kg body weight, Group 6: SNX + 0.3 mg/kg body weight/day p.o.): 9621 ± 212 mmHg/s
- left-ventricular pressure decrease as a function of time ([3]; isoprenaline 100 ng/kg body weight, Group 7: SNX + 3.0 mg/kg body weight/day p.o.): 10263 ± 294 mmHg/s
- left-ventricular pressure decrease as a function of time ([3]; isoprenaline 250 ng/kg body weight, Group 6: SNX + 0.3 mg/kg body weight/day p.o.): 9968 ± 162 mmHg/s
- left-ventricular pressure decrease as a function of time ([3]; isoprenaline 250 ng/kg body weight, Group 7: SNX + 3.0 mg/kg body weight/day p.o.): 10385 ± 352 mmHg/s
- Diastolic blood pressure [4]: 144 ± 6 mmHg
- Heart rate [4]: 326 ± 9 beats/min
- Left ventricular hypertrophy (LVS/RV ratio, mg/mg) [4]: 4.5 ± 0.2 mg/mg
- Left-ventricular end-diastolic pressure [4]: 10.22 ± 1.6 mmHg
- Left-ventricular pressure [4]: 196 ± 5 mmHg
- Pressure decrease over time [4]: −10680 ± 524 mmHg/s
- Pressure increase over time [4]: 9419 ± 383 mmHg/s
- Systolic blood pressure [4]: 205 ± 5 mmHg
